Source: paper PMC12040169 (PLOS Biology, 2025)

Assay: in vitro
Conditions: human, hela cells, % viability

Structure (SMILES)	viability at 28.5 h, 10 µM	viability at 28.5 h, 10 µM (bulk resorufin, single well)
Cn1cc(-c2nccnc2OC(c2ccccc2)c2ccccc2)cn1 [CBK107073]	103%	
CC(NCC(O)COCc1ccc(Cl)cc1)c1ccccc1 (stereo not shown) [CBK027972C]	87.5%	
CN1CCCN(C(=O)c2ccc(-c3nc(-c4ccc(C#N)cc4)cnc3N)cc2)CC1 [CBK107140]	93.9%	
O=C(CSc1ccccc1[N+](=O)[O-])Oc1ccccc1 [CBK265501]	106%	
N=C1/C(=C/c2cn(Cc3ccccc3)c3ccccc23)C(=O)N=C2SC(COc3ccccc3)=NN12 [CBK264150]	114%	
CC1=C[C@@H](CC#N)[C@H](C(C)C)C[C@H]1CC(=O)Nc1ccccn1 [CBK289215]	87%	
CC(C)(C)n1cc(NC2CCN(c3ccc(C#N)cc3)C2=O)cn1 (stereo not shown) [CBK306445]	85.7%	
CC(C)C1OC(N2CCOCC2)=NC1=O (stereo not shown) [CBK070384]	92.3%	
Cc1csc(C(Cc2ccsc2)NC(=O)CCc2ccno2)n1 (stereo not shown) [CBK285099]	100%	
Cc1ccn2c(CN3CCCC(Cn4ccnc4C)C3)c(C)nc2c1 (stereo not shown) [CBK281964]	86.6%	
Clc1ccc(COc2ccc(/C=N/Nc3nc(N4CCOCC4)nc(N4CCOCC4)n3)cc2)c(Cl)c1 [CBK262061]	103%	
Cc1nc(O)cc(CCn2cc(-c3cncnc3)nn2)n1 [CBK306712]	96.2%	
CC(C)(C)C(=O)N1CCC(c2nc3ccccc3cc2N)CC1 [CBK285039]	101%	
O=C(Nc1ccc(Cl)cc1)N1Cc2nc[nH]c2C[C@H]1c1nc(-c2ccncc2)no1 [CBK288964]	91.4%	
CC(=O)NC1(CC(=O)N2CC[C@H]3NC(=O)COc4ccccc4C/C=C/C[C@H]3C2)CCCCC1 [CBK292117]	91.3%	
COc1ccc(-n2c(=O)c3ccccc3n(CC(=O)NC3CCCC3)c2=O)cc1 [CBK287574]	92.2%	
CN(C)Cc1c(O)ccc2occ(C(=O)c3ccccc3)c12 [CBK261965]	94%	
CCCc1cc(CNC(=O)c2cc(C3CC3)nn2C)on1 [CBK282048]	102%	
Cc1ccc(S(=O)(=O)N(C)c2c(C)ccc(S(=O)(=O)N(C)CCO)c2C)cc1 [CBK264970]	85.5%	
Cc1nn(-c2ccc(F)cc2)c(C)c1C(=O)NCc1ccnc(N2CCCC2)c1 [CBK296700]	93.3%	
CCCC(=O)c1ccc(S(=O)(=O)N2CCCN(Cc3c[nH]nc3-c3ccccc3)CC2)cc1 [CBK062916]	83.9%	
O=C(CSc1nnc2c(n1)[nH]c1ccccc12)Nc1ccccc1[N+](=O)[O-] [CBK263195]	100%	

Structure (SMILES)	viability at 28.5 h, 10 µM	viability at 28.5 h, 10 µM (bulk resorufin, single well)
Cc1nn(CC(=O)N(C)Cc2cnccn2)c(=O)c2ccccc12 [CBK304356]	97.6%	
C[C@@H](c1ccccc1)N1C(=O)[C@@H]2CN(S(=O)(=O)c3cccs3)CCN2C1=O [CBK289635]	91.3%	
O=c1[nH]nc2c(SCc3ccccc3)nccn12 [CBK288440]	90.5%	
CC(=O)OC(Cn1c2ccccc2c2ccccc21)Cn1c2ccccc2c2ccccc21 [CBK262307]	104%	
O=C(Nc1c(F)cc(F)cc1OC1CCNCC1)c1coc2c1C(=O)CCC2 [CBK050331T]	93.9%	
O=C(Oc1ccc(F)cc1C(=O)/C=C/c1ccccc1F)c1cccc([N+](=O)[O-])c1 [CBK264859]	86.9%	
COc1ccc(N2CCN(c3cncc(-c4cccs4)n3)CC2)cc1OC [CBK065687]	104%	
CC(=O)NC[C@H]1CN(c2ccc3c(c2)CCN(C(=O)Cc2ccccc2)CC3)C(=O)O1 [CBK018499]	111%	
Cc1cccc(CN(CC(=O)Nc2ccc(F)cc2F)S(=O)(=O)c2ccc(Cl)cc2)c1 [CBK265164]	84.9%	
CCOC(=O)C(C(=O)OCC)(N1CCOCC1)N1CCOCC1 [CBK261176]	112%	
C[n+]1cn(/N=C/c2ccco2)cn1 [CBK028562I]	104%	
CNC(=O)c1sc2ccccc2c1C1CCN(S(=O)(=O)c2ccc(C)c(C)c2)C1 (stereo not shown) [CBK285877]	85.8%	
Cc1cc(C)cc(-c2ccc(CC3(C(=O)NC(C)CO)CCOCC3)cc2)c1 (stereo not shown) [CBK286523]	110%	
CN(C)CCCC(O)(c1ccccc1)c1ccccc1 [CBK012599]	109%	
CN(c1ncccc1C#N)C1CCN(C(=O)OCc2ccccc2)CC1 [CBK023869C]	84.1%	
Cn1cc(CN2CCCN(C(=O)CCCc3ccccn3)CC2)cn1 [CBK305347]	87.3%	
Clc1ccc(-c2c[nH]cn2)cc1 [CBK027542]	111%	
c1ccc2c(CSc3ncn[nH]3)cccc2c1 [CBK025610]	114%	
NC(=O)N/N=C/c1ccncc1 [CBK260922]	107%	
CCCCCOc1ccc(Nc2ccc(-c3cc4ccccc4o3)cn2)cc1 [CBK036828]	93.6%	
O=C(Nc1cccc(-c2nc3ncccc3o2)c1)c1cccc(OCc2ccccc2)c1 [CBK263126]	86.2%	
Cn1c(SCc2cccnc2)nnc1-c1cccs1 [CBK067706]	93.1%	

Structure (SMILES)	viability at 28.5 h, 10 µM	viability at 28.5 h, 10 µM (bulk resorufin, single well)
COC(=O)c1ccsc1NC(=O)c1cc(-c2ccc(C)o2)nc2ccc(Br)cc12 [CBK267752]	86.7%	
O=c1n(Cc2ccccc2F)nc2nnc(-c3ccccc3)c(-c3ccccc3)n12 [CBK286179]	80.9%	
O=C(O)c1ccc(Oc2ccc([N+](=O)[O-])cc2)cc1C(=O)O [CBK260961]	89%	
Cc1noc(C)c1CN(C)C(=O)NC1CCCc2c1cnn2CCO (stereo not shown) [CBK306283]	92.5%	
COc1ccc(CN2CCN(CCCc3ccccc3)CC2)c(OC)c1 [CBK263378]	95.1%	
O=C(Nc1ccc2oc(-c3cccnc3)nc2c1)c1cccc(OCc2ccccc2)c1 [CBK263420]	94.4%	
C=CCn1c(SCCC(=O)O)nc2c1c(=O)n(C)c(=O)n2C [CBK269573]	79.3%	
CCNC(=S)N[C@@H]1CC[C@@]2(c3ccc([N+](=O)[O-])cc3)CCN(CCc3ccccc3)[C@H]2C1 [CBK004677]	90.5%	
Cc1cc(C(=O)O)ccc1-c1ccc(/C=N/n2cnnc2)o1 [CBK264713]	92.5%	
O=C(Nc1cc2ccccc2c(N2CCNCC2)n1)c1cnccn1 [CBK036346T]	95.4%	
CC(C)C(=O)N1CCCC(c2cc3cccnc3[nH]2)C1 (stereo not shown) [CBK284994]	96.4%	
Cc1ccc(-c2cc(CC3(C(=O)N(C)C)CCCN(C)C3)on2)cc1 (stereo not shown) [CBK281695]	89.3%	
CC1=NNC(=S)NC(C)(C)C1 [CBK021597]	120%	
O=C1NC2(CCCN(C(=O)c3ccco3)C2)Nc2ccccc21 (stereo not shown) [CBK284803]	104%	
Cc1ccc(-c2noc([C@@H]3Cc4[nH]cnc4CN3C(=O)CCC(=O)O)n2)cc1 [CBK288958]	96.3%	
Nc1nnc(C2CCCCC2)s1 [CBK039123]	84.5%	
O=C(O)CNC(=O)CN1C(=O)c2ccc(C(=O)O)cc2C1=O [CBK264080]	90.8%	
O=C(O)c1ccc(Cl)c(S(=O)(=O)NCc2ccco2)c1 [CBK304575]	105%	
OC1(c2cccnc2F)CCN(Cc2cc(F)cc(F)c2)CC1 [CBK285375]	81.5%	
COc1ccc(-c2cncc(C3CN(Cc4cccc5ncccc45)CCO3)n2)cc1 (stereo not shown) [CBK285947]	96.7%	
O=[N+]([O-])c1cccc(-c2csc(N/N=C\c3cccc(O)c3)n2)c1 [CBK263418]	95.5%	
CCCS(=O)(=O)Nc1cccc2[nH]ccc12 [CBK159488]	97.5%	

Structure (SMILES)	viability at 28.5 h, 10 µM	viability at 28.5 h, 10 µM (bulk resorufin, single well)
COc1ccc(C(CCN)c2ccccc2OC)cc1 (stereo not shown) [CBK266125]	103%	
CN1CCN(C(=O)CCCN2C(=O)c3cccc4cccc(c34)C2=O)CC1 [CBK262383]	96.9%	
COc1ccc(CN2CC(C(=O)O)C2)cc1Cn1cncn1 [CBK307284]	110%	
CCOC(=O)C1(c2ccccc2)CCN(C(=O)c2cccc3[nH]ccc23)CC1 [CBK132193]		95.7%
CC(C)(C)c1ccc(C(=O)CC(C(=O)O)N2CCN(c3cccc(Cl)c3)CC2)cc1 (stereo not shown) [CBK077385]	90.9%	
Cc1ccc(OCC(O)Cn2c(=N)n(Cc3ccccc3)c3ccccc32)cc1 (stereo not shown) [CBK266293C]	91.7%	
O=C(O)CCCN1C(=O)c2ccccc2C1=O [CBK056635]	91.7%	
C#CCOc1cncc(Cl)n1 [CBK113370]	87.7%	
NS(=O)(=O)c1ccc(NC(=O)c2ccc(NC(=O)C3COc4ccccc4O3)cc2)cc1 (stereo not shown) [CBK266573]	101%	
O=C(O)CC1C(=O)NCCN1Cc1ccccc1Cl (stereo not shown) [CBK270114]	93%	
Cc1nnc(CN2CCOC(c3nc(C(C)(C)C)cs3)C2)n1C (stereo not shown) [CBK305772]	93.1%	
CCC1CCCCN1C(=O)c1sc(C)nc1C (stereo not shown) [CBK089359]	105%	
O=C(c1cc2nc(-c3ccccc3)cc(-c3ccccc3)n2n1)N1CCN(C(=O)c2ccco2)CC1 [CBK269056]	99.4%	
Cc1onc(-c2ccccc2)c1C(=O)N1CCN(CCN2CCCC2)CC1 [CBK158558]	98.6%	
O=C(NC1CCS(=O)(=O)C1)c1cc2ccc(OC(F)(F)F)cc2[nH]1 (stereo not shown) [CBK305754]	92.4%	
C[S+]([O-])CCNC(=O)Cn1c(-c2cccs2)cc2cccnc21 (stereo not shown) [CBK282556]	89.3%	
COc1ccc(/C(C)=N\NC(=O)c2cccc(Br)c2)cc1 [CBK261612]	100%	
O=C(CSc1ccc(Cl)cc1)Nc1cc(C(=O)O)cc(C(=O)O)c1 [CBK266531]	98.8%	
CC1CCc2nn(CCNC(=O)c3cccs3)c(=O)cc2C1 (stereo not shown) [CBK284483]	97.4%	
CC(=O)N(C)c1nc(-c2ccccc2C)ccc1C(=O)Nc1cc(C)nn1C [CBK106357]	88.6%	
CN(Cc1cc(C(C)(C)C)c(O)c(C(C)(C)C)c1)Cc1cc(C(C)(C)C)c(O)c(C(C)(C)C)c1 [CBK261980]	97%	
Cc1n[nH]c(-c2ccc(OCc3cnn(-c4ccccc4)c3)cc2O)c1Oc1ccc(F)cc1 [CBK264461]	116%	
